From patent US12377052B2, “Dual-responsive nanoparticles for enhanced antibacterial efficacy” (priority 2020, dated 2025)
Values after ≈ are worked out from the molar mass of the structure shown. Like-named read-outs stand apart in the source and are kept apart here.

Legend:
[1] = test system: MRSA (ATCC 33591); test: MIC, broth microdilution; type: cell-based, S. aureus
Description: (§1) Bacterial strains. S. aureus Newman was kindly provided by Prof. Douglas Weibel; E. coli ATCC25922, S. aureus ATCC 33591 and P. aeruginosa ATCC 27853 were purchased from ATCC. E. coli DH5a was purchased from Thermo Fisher. These bacteria were grown in Mueller Hinton Broth (MHB) media (Criterion, Santa Maria, CA, USA). M. smegmatis mc^2155 strain was kindly provided by Prof. Adel M. Talaat's laboratory, and it was grown in Middlebrook 7H9 broth (HiMedia, West Chester, PA, USA).
(§2) Minimal inhibitory concentration (MIC) measurements. The MIC of the different treatments on various bacteria strains was determined using the Clinical Laboratory Standards Institute broth microdilution method^8. Briefly, broth media (100 μL) containing two-fold serial dilutions of each compound were placed into a 96-well tissue culture plate. Each bacterial strain was taken from an exponentially growing culture and diluted to 5×10^6 CFU/mL. Ten microliters of such microbial suspension was inoculated in each well of the plate, resulting in a final bacteria concentration of approximately 5×10^5 CFU/mL. The bacteria were cultured at 37° C. for one day and their growth was observed by reading the optical density (OD) at 600 nm. The MIC was determined as the treatment concentration at which no microbial growth was observed. Broth containing microbial cells alone was used as a positive control and broth without bacteria inoculation was used as a negative control. Each test was carried out in 3 replicates.

[2] = test system: E. coli (ATCC 25922); test: MIC, broth microdilution; type: cell-based; details: Escherichia coli, ATCC25922; no pH/H2O2 stimulus stated
Description: as §1, §2

[3] = test system: E. coli (DH5 alpha); test: MIC, broth microdilution; type: cell-based; details: Escherichia coli; no pH/H2O2 stimulus stated
Description: as §1, §2

[4] = test system: M. smegmatis (MC^2 155); test: MIC, broth microdilution; type: cell-based; details: Mycolicibacterium smegmatis, MC^2155; no pH/H2O2 stimulus stated
Description: as §1, §2

[5] = test system: P. aeruginosa (ATCC 27853); test: MIC, broth microdilution; type: cell-based
Description: as §1, §2

[6] = test system: S. aureus (Newman); test: MIC, broth microdilution; type: cell-based; details: Staphylococcus aureus, no pH/H2O2 stimulus stated
Description: as §1, §2

[7] = test system: MRSA; test: Checkerboard assay, FIC index; type: cell-based, S. aureus; details: antibiotic with the PBAE-G polymer
Description: (§3) Fractional inhibitory concentration (FIC) measurement. The synergy between the cationic polymer and antibiotic was assessed by checkerboard assays. The two antibacterial components were mixed in a 96-well plate with serial two-dimensional dilutions. Bacteria were inoculated in each well of the plate and their growth, reflected by the OD600 value, was monitored. The synergy effect was evaluated by calculating the FIC index according to the formula below:
(§4) [formula] MICA^Comb and MICB^Comb indicate the MICS of the two components in combination. The interactions between the two components are defined according to standard criteria of considering FIC≤0.5 as synergistic; 0.5<FIC≤1 as additive; 1<FIC≤4 as indifference; and FIC>4 as antagonism.

[8] = test system: M. smegmatis (MC^2 155); test: Checkerboard assay, FIC index; type: cell-based; details: low pH and high ROS condition
Description: as §3, §4

[9] = test system: P. aeruginosa (ATCC 27853); test: Checkerboard assay, FIC index; type: cell-based; details: for FIC index: antibiotic with the PBAE-G polymer
Description: as §3, §4

[10] = test system: Raw 264.7 murine macrophage cells; test: Cell viability test (MTT assay); type: cell-based; details: Mus musculus, RAW264.7, 24 h, one day treatment
Description: Cell viability test. Cytotoxicity of different NP components was tested using MTT assays. Raw 264.7 murine macrophage cells were seeded onto a 96-well plate (1×10^4 cells/well) and cultured overnight. The cells were then treated with free antibiotic, PBAE-G polymer or NP with serial dilutions for one day and their viability was measured by a standard MTT assay. Data were collected by monitoring the difference between the absorbance at 560 nm and 650 nm using a GloMax-Multi Microplate Multimode Reader (Promega, WI, USA).

[11] = test system: MRSA biofilm; test: Biofilm inhibition assay (crystal violet); type: cell-based, S. aureus; details: 32 μg/mL
Description: Biofilm inhibition assays. Exponentially growing bacteria were inoculated into 96 well plates (1×10^4 cell/well) containing MHB broth with 2% (w/v) glucose, and incubated under stationary conditions at 37° C. for one day. After biofilm formation, the medium was discarded, and the plates were washed with PBS to remove the planktonic bacteria. Fresh MHB broth containing serially diluted free rifampicin or NP was added to the plates and incubated at 37° C. for another 24 h. The media in each well was then removed, and the plates were washed carefully with PBS one time. The biofilm in each well was fixed with 95% ethanol for 15 min and stained with 0.1% crystal violet for 15 min. After the biofilm was washed with Milli-Q water for three times, 33% v/v acetic acid (100 μL/well) was added to the plate to solubilize the crystal violet staining. OD 560 in each well was read to assess the biofilm formation.

[12] = test system: E. coli ATCC 25922; test: Evaluation of antibiotic resistance development (serial passaging); type: cell-based; details: sub-lethal dose (0.5 MIC), after 20 passages
Description: Evaluation of antibiotic resistance development. […] The OD 600 value in each tube was examined to determine the MIC, and the bacteria cultured in the tube containing rifampicin at a ½ MIC was used for passage. The MIC for each passage was recorded and compared to that of the first passage to determine the drug resistance enhancement.

[13] = Table 1, antibiotic alone, in µg/mL (unit assumed)

Compound | MIC ([1]; Staphylococcus aureus, no pH/H2O2 stimulus stated, read-out: MIC MRSA (ATCC 33591)) | MIC ([1]; Table 1, antibiotic alone) | MIC [2] | MIC [3] | MIC [4] | MIC ([5]; Pseudomonas aeruginosa, ATCC27853, no pH/H2O2 stimulus stated, read-out: MIC P. aeruginosa (ATCC 27853)) | MIC [5, 13] | MIC [6] | FIC index [7] | FIC index between rifampicin and the PBAE-G-B polymer [8] | FIC index [9] | FIC index between rifampicin and the PBAE-G-B polymer ([9]; low pH and high ROS condition) | IC50 [10] | biofilm remained [11] | MIC increase compared to initial [12]
CO[C@H]1/C=C/O[C@@]2(C)Oc3c(C)c(O)c4c(O)c(c(/C=N/N5CCN(C)CC5)c(O)c4c3C2=O)NC(=O)/C(C)=C\C=C\[C@H](C)[C@H](O)[C@@H](C)[C@@H](O)[C@@H](C)[C@H](OC(C)=O)[C@@H]1C [Rifampicin] | 0.016 µg/mL (≈ 0.0194 µM) | 0.016 µg/mL (≈ 0.0194 µM) | 16 µg/mL (≈ 19.4 µM) | 16 µg/mL (≈ 19.4 µM) | 128 µg/mL (≈ 156 µM) | 32 µg/mL (≈ 38.9 µM) | 32 | 0.016 µg/mL (≈ 0.0194 µM) | 1 | 0.25 | 0.25 | 0.188 | 210 µg/mL (≈ 255 µM) | More than 80% | 40 fold
CCC[C@@H]1C[C@@H](C(=O)N[C@@H]([C@H]2O[C@H](SC)[C@H](O)[C@@H](O)[C@H]2O)[C@H](C)Cl)N(C)C1 [Clindamycin] |  | 32 µg/mL (≈ 75.3 µM) |  |  |  |  | >1024 |  | 0.562 |  | <0.25 |  |  |  | 
O=C(O)c1cn(C2CC2)c2cc(N3CCNCC3)c(F)cc2c1=O [Ciprofloxacin] |  | 0.5 µg/mL (≈ 1.51 µM) |  |  |  |  | 0.25 |  | 2 |  | 1 |  |  |  | 
CC1(C)S[C@@H]2[C@H](NC(=O)[C@H](N)c3ccc(O)cc3)C(=O)N2[C@H]1C(=O)O [Amoxicillin] |  | 128 µg/mL (≈ 350 µM) |  |  |  |  | 1024 |  | 0.75 |  | 2 |  |  |  | 
Gentamicin |  | 1 µg/mL |  |  |  |  | 1 |  | 0.5 |  | 0.375 |  |  |  | 
CN[C@H](CC(C)C)C(=O)N[C@H]1C(=O)N[C@@H](CC(N)=O)C(=O)N[C@H]2C(=O)N[C@H]3C(=O)N[C@H](C(=O)N[C@H](C(=O)O)c4cc(O)cc(O)c4-c4cc3ccc4O)[C@H](O)c3ccc(c(Cl)c3)Oc3cc2cc(c3O[C@@H]2O[C@H](CO)[C@@H](O)[C@H](O)[C@H]2O[C@H]2C[C@](C)(N)[C@H](O)[C@H](C)O2)Oc2ccc(cc2Cl)[C@H]1O [Vancomycin] |  | 1 µg/mL (≈ 0.69 µM) |  |  |  |  | 1024 |  | 1 |  | 2 |  |  |  | 
[H]/N=C(/N)N[C@H]1[C@H](O)[C@@H](O)[C@H](O[C@@H]2O[C@@H](C)[C@](O)(C=O)[C@H]2O[C@@H]2O[C@@H](CO)[C@H](O)[C@@H](O)[C@@H]2NC)[C@@H](N/C(N)=N\[H])[C@@H]1O [Streptomycin] |  | 16 µg/mL (≈ 27.5 µM) |  |  |  |  | 16 |  | 0.266 |  | 0.25 |  |  |  | 
